Where two headings read alike, the source gives them in different places.

For the test, the target named is GCN2 (Homo sapiens, UniProt Q9P2K8). The test is described as follows: GCN2 enzymatic endpoint assay: phosphorylation of GFP-eIF2α measured by TR-FRET (Lanthascreen). In kind it is biochemical. The essentials:
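Kinase activity is measured as phosphorylation of GFP-labelled eIF2α (80 nM) with ATP at 2 μM. Incubation runs 90 minutes at room temperature before EDTA quench and terbium-antibody detection.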

[1] abbreviates: tested as described in Example 77, compound and/or hydrochloride, dihydrochloride or trifluoroacetic acid salt, read-out: IC 50 Activity.
Setting [2] is: GCN2 biochemical IC50, 4 nM GCN2, 2 μM ATP, 80 nM GFP-eIF2α, 90 min RT, read-out: GCN2 activity.

Chain of GCN2 (Q9P2K8 whole entry): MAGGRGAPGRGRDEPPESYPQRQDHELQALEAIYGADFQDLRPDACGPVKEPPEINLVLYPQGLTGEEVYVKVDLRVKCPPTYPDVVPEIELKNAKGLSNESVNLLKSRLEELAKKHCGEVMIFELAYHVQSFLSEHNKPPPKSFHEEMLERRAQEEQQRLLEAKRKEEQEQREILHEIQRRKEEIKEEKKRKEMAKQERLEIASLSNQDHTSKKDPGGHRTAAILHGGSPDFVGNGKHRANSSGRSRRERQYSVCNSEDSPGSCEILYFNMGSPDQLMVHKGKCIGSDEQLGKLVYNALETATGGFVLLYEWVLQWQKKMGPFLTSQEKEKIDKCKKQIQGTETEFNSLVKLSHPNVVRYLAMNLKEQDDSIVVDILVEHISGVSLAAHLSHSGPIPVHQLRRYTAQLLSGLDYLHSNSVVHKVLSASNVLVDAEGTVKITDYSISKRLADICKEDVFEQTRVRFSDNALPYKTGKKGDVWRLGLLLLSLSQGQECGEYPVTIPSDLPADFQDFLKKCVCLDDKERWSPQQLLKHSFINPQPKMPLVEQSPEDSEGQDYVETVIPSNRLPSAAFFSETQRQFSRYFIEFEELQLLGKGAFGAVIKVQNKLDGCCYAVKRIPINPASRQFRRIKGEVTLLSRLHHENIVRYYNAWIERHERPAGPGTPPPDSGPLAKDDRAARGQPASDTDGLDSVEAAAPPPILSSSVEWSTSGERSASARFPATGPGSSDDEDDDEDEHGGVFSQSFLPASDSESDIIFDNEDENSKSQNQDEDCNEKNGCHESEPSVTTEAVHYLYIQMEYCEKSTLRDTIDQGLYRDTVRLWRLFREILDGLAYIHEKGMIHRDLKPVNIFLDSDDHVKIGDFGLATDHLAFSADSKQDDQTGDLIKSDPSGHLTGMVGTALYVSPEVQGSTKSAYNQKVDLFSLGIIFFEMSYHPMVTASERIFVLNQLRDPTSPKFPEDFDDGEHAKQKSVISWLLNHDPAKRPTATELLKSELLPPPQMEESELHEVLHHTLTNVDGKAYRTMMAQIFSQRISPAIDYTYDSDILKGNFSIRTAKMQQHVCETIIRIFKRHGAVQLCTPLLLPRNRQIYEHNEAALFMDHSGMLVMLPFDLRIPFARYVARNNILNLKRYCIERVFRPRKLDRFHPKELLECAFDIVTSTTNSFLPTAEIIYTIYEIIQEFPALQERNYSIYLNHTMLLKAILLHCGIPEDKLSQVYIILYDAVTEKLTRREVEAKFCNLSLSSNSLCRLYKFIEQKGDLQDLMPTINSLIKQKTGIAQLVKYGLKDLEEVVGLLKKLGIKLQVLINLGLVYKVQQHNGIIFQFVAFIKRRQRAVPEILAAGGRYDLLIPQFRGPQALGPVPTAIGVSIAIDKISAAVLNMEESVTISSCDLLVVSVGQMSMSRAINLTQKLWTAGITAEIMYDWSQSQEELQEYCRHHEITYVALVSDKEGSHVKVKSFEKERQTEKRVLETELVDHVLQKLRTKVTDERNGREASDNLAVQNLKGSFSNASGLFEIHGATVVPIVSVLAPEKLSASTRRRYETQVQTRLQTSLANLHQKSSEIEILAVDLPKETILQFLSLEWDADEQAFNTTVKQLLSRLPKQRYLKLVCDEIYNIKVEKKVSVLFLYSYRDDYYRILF

Take `CNC(=O)C1(CCS(C)(=O)=O)CC[C@@H](Nc2ncc3c(Br)nn(-c4ccc(-c5nnc(C)s5)cc4)c3n2)C1` (stereo partly drawn) [(3R)-3-[[3-bromo-1-[4-(5-methyl-1,3,4-thiadiazol-2-yl)phenyl]pyrazolo[3,4-d]pyrimidin-6-yl]amino]-N-methyl-1-(2-methylsulfonylethyl)cyclopentane-carboxamide]: the IC50 under setting [1] lay within 0.025 to 0.2 µM.
On the same count and under the same terms, the result for `COCCNC(=O)[C@@H]1CC[C@@H](Nc2ncc3c(Br)nn(-c4ccc5ncc(F)cc5c4)c3n2)C1` [(1R,3R)-3-((3-bromo-1-(3-fluoroquinolin-6-yl)-1H-pyrazolo[3,4-d]pyrimidin-6-yl)amino)-N-(2-methoxyethyl)cyclopentane-1-carboxamide] reads 0.025 to 0.2 µM; that for `CCN1CN(C(=O)[C@@H]2CC[C@@H](Nc3ncc4c(Br)nn(-c5cc(F)c6ncccc6c5)c4n3)C2)CC1=O` [1-((1R,3R)-3-((3-bromo-1-(8-fluoroquinolin-6-yl)-1H-pyrazolo[3,4-d]pyrimidin-6-yl)amino)cyclopentane-1-carbonyl)-3-ethyl-imidazolidin-4-one], 0.025 to 0.2 µM.
For the compound `CNC(=O)[C@@]1(C)CC[C@@H](Nc2ncc3c(Br)nn(-c4ccc5nccnc5c4)c3n2)C1` [(1S,3R)-3-((3-bromo-1-(quinoxalin-6-yl)-1H-pyrazolo[3,4-d]pyrimidin-6-yl)amino)-N,1-dimethylcyclopentane-1-carboxamide], under setting [1], the IC50 was in the range of 0.5 to 1 µM.
For `CNC(=O)[C@]1(C)CC[C@@H](Nc2ncc3c(Br)nn(-c4ccc5c(c4)CN(C=O)CC5)c3n2)C1` [(1R,3R)-3-[[3-bromo-1-(2-formyl-3,4-dihydro-1H-isoquinolin-7-yl)pyrazolo [3,4-d]pyrimidin-6-yl]amino]-N,1-dimethyl-cyclopentanecarboxamide], under setting [1], the IC50 was in the range of 0.025 to 0.2 µM.
In the case of `CNC(=O)[C@]1(C)CC[C@@H](Nc2ncc3c(Br)nn(-c4ccc(-n5cncn5)cc4)c3n2)C1` [(1R,3R)-3-[[3-bromo-1-[4-(1,2,4-triazol-1-yl)phenyl]pyrazolo[3,4-d]pyrimidin-6-yl]amino]-N,1-dimethyl-cyclopentane-carboxamide], the IC50 under setting [1] is 0.025 to 0.2 µM.
As for `COCCNC(=O)[C@@H]1CC[C@@H](Nc2ncc3c(I)nn(-c4ccc5ncccc5c4)c3n2)C1` [Example 13, (1R,3R)-3-((3-iodo-1-(quinolin-6-yl)-1H-pyrazolo[3,4-d]pyrimidin-6-yl)amino)-N-(2-methoxyethyl)cyclopentane-1-carboxamide], the IC50 under setting [2] was less than 0.025 µM.
In the case of `N#Cc1cc(-n2nc(Br)c3cnc(N[C@@H]4CC[C@@H](C(=O)N[C@H]5CCNC5)C4)nc32)cc2cccnc12` [(1R,3R)-3-((3-bromo-1-(8-cyanoquinolin-6-yl)-1H-pyrazolo[3,4-d]pyrimidin-6-yl)amino)-N-((S)-pyrrolidin-3-yl)cyclopentane-1-carboxamide], under setting [1], the IC50 is less than 0.025 µM.
Turning to `Cc1nnc(-c2ccc(-n3nc(Br)c4cnc(N[C@@H]5CC[C@](C(=O)N6CCNCC6)(C(C)C)C5)nc43)cc2CCC(N)=O)s1` [Example 28, 3-(5-(3-bromo-6-(((1R,3R)-3-isopropyl-3-(piperazine-1-carbonyl)cyclopentyl)amino)-1H-pyrazolo[3,4-d]pyrimidin-1-yl)-2-(5-methyl-1,3,4-thiadiazol-2-yl)phenyl)propanamide; 2,2,2-trifluoroacetic acid], the IC50 under setting [2] is less than 0.025 µM.
`CNC(=O)[C@]1(C)CC[C@@H](Nc2ncc3c(Br)nn(-c4ccc5nc(N)ncc5c4)c3n2)C1`: the IC50 under setting [1] fell in the range of 0.025 to 0.2 µM.
As to `CCN(C)C(=O)[C@]1(C)CC[C@@H](Nc2ncc3c(Br)nn(-c4cc(F)c5ncccc5c4)c3n2)C1` [(1R,3R)-3-[[3-bromo-1-(8-fluoro-6-quinolyl)pyrazolo[3,4-d]pyrimidin-6-yl]amino]-N-ethyl-N,1-dimethyl-cyclopentanecarboxamide], under setting [1], the IC50 is less than 0.025 µM.
On the same count and under the same terms, the result for `CCCCNC(=O)[C@@H]1CC[C@@H](Nc2ncc3c(Br)nn(-c4cc(C#N)c5ncccc5c4)c3n2)C1` [(1R,3R)-3-((3-bromo-1-(8-cyanoquinolin-6-yl)-1H-pyrazolo[3,4-d]pyrimidin-6-yl)amino)-N-butylcyclopentane-1-carboxamide] reads 0.2 to 0.5 µM.
For `Cc1nnc(-c2ccc(-n3nc(Br)c4cnc(NC5CCC(CN(C)C)(C(=O)O)C5)nc43)cc2)s1` (stereo not drawn), under setting [1], the IC50 lay within 0.025 to 0.2 µM.
On the same count and under the same terms, the figure for `COCCNC(=O)[C@@H]1CC[C@@H](Nc2ncc3c(Br)nn(-c4ccc5cn[nH]c5c4)c3n2)C1` [(1R,3R)-3-((3-bromo-1-(1H-indazol-6-yl)-1H-pyrazolo[3,4-d]pyrimidin-6-yl)amino)-N-(2-methoxyethyl)cyclopentane-1-carboxamide] is 0.5 to 1 µM.
Take `CNC(=O)[C@]1(C)CC[C@@H](Nc2ncc3c(Br)nn(-c4cc(C#N)c5ncccc5c4)c3n2)C1` (single isomer, unassigned) [Example 23]: the IC50 under setting [2] is less than 0.025 µM.
With `C[C@H]1CN(C(=O)[C@@H]2CC[C@@H](Nc3ncc4c(Br)nn(-c5ccc6ncccc6c5)c4n3)C2)C[C@H](C)O1` [((1R,3R)-3-((3-bromo-1-(quinolin-6-yl)-1H-pyrazolo[3,4-d]pyrimidin-6-yl)amino)cyclo-pentyl)((2S,6S)-2,6-dimethylmorpholino) methanone], the IC50 under setting [1] lay within 0.025 to 0.2 µM.
Turning to `CNC(=O)[C@]1(C)CC[C@@H](Nc2ncc3c(Br)nn(-c4ccc5nc(N6CCCC6)ncc5c4)c3n2)C1`, the IC50 under setting [1] was in the range of 0.025 to 0.2 µM.
In the case of `CS(=O)(=O)N[C@@H]1CCC(Nc2ncc3c(Br)nn(-c4ccc5ncccc5c4)c3n2)C1` (mixture of isomers) [Example 15, N-(trans-3-((3-bromo-1-(quinolin-6-yl)-1H-pyrazolo[3,4-d]pyrimidin-6-yl)amino)cyclopentyl)methanesulfonamide], under setting [2], the IC50 was in the range of 0.2 to 0.5 µM.
For `CNC(=O)[C@]1(C)CC[C@@H](Nc2ncc3c(Br)nn(-c4cc(Cl)cc(CS(C)(=O)=O)c4)c3n2)C1` [(1R,3R)-3-[[3-bromo-1-[3-chloro-5-(methylsulfonylmethyl)phenyl]pyrazolo [3,4-d]pyrimidin-6-yl]amino]-N,1-dimethyl-cyclopentanecarboxamide], under setting [1], the IC50 is 0.025 to 0.2 µM.
On the same count and under the same terms, the figure for `O=C(NC[C@H]1COCCN1)[C@@H]1CC[C@@H](Nc2ncc3c(Br)nn(-c4cc(F)c5ncccc5c4)c3n2)C1` is 0.025 to 0.2 µM; for `O=C([C@@H]1CC[C@@H](Nc2ncc3c(Br)nn(-c4cc(F)c5ncccc5c4)c3n2)C1)N1CCN2CCOC[C@@H]2C1` [((1R,3R)-3-((3-bromo-1-(8-fluoroquinolin-6-yl)-1H-pyrazolo[3,4-d]pyrimidin-6-yl)amino)cyclopentyl)((S)-hexahydropyrazino[2,1-c] [1,4]oxazin-8(1H)-yl)methanone] it is 0.025 to 0.2 µM; for `Cn1cccc(NC(=O)[C@@H]2CC[C@@H](Nc3ncc4c(Br)nn(-c5cc(F)c6ncccc6c5)c4n3)C2)c1=O` [(1R,3R)-3-[[3-bromo-1-(8-fluoro-6-quinolyl)pyrazolo[3,4-d]pyrimidin-6-yl]amino]-N-(1-methyl-2-oxo-3-pyridyl)cyclopentane-carboxamide] it is 0.025 to 0.2 µM.
Turning to `CNC(=O)[C@]1(C)CC[C@@H](Nc2ncc3c(Br)nn(-c4cc(NC(=O)CN)c5ncccc5c4)c3n2)C1` [(1R,3R)-3-[[1-[8-[(2-aminoacetyl)amino]-6-quinolyl]-3-bromo-pyrazolo[3,4-d]pyrimidin-6-yl]amino]-N,1-dimethyl-cyclopentanecarboxamide], the IC50 under setting [1] is 0.025 to 0.2 µM.
Still for that read-out and setting: the result for `CNC(=O)[C@@]1(CC(F)(F)F)CC[C@@H](Nc2ncc3c(Br)nn(-c4ccc(-c5nnc(C)s5)cc4)c3n2)C1` reads 0.025 to 0.2 µM.

The values above are taken from patent US11046699B2, “Pyrazolo-pyrimidin-amino-cycloalkyl compounds and their therapeutic uses” (RAPT THERAPEUTICS, INC., priority 2018, dated 2021).
